Values after ≈ are worked out from the molar mass of the structure shown.
Columns and labels:
[1] = system: multidrug resistant malarial strain W2 (pyrimethamine and chloroquine resistant); assay: in vitro antimalarial activity against strain W2; assay type: cell-based; details: strains W2 and TM90-C2B, strain not specified
From the text: (§1) FIG. 2a depicts the synthesis of 4(1H)-quinolones 1 via Conrad-Limpach reaction^24 and conversion to first set of prodrugs (2, 3 and 4) via O-acylation.
(§2) FIG. 4a depicts the synthesis of 4(1H)-quinolones 1 into amino AOCOM ether prodrugs 6 via O-alkylation and subsequent deprotection.

[2] = physchem; details: pH 7.4, aqueous buffer
[3] = system: multidrug resistant malarial strain TM90-C2B (mefloquine, chloroquine, atovaquone, pyrimethamine resistant); assay: in vitro antimalarial activity against strain TM90-C2B; assay type: cell-based; details: internal controls of the in vitro assay
From the text: as §1, §2

[4] = system: P. berghei-GFP parasites; assay: in vivo efficacy, modified Thompson test; design: species or system mice; details: three daily doses days 3-5 PI, 0.5% aqueous HEC
Experimental: Prodrug 6d was orally tested for in vivo efficacy at four doses (0.3 mg/kg, 1.0 mg/kg, 3.0 mg/kg, and 10 mg/kg) in 0.5% aqueous HEC solution.

[5] = aqueous solubility at pH 2.5, UV-based assay; assay type: physicochemical; details: aqueous solution at pH 2.5, pH 2.5, aqueous buffer; read-out: aqueous solubility at acidic pH
From the text: Analogous to known AOCOM ether prodrugs, AOCOM iodides were used to prepare the desired prodrugs.^39 Thus, the synthesis route to the prodrugs commences with conversion of Boc-protected amino alcohols into corresponding Boc-protected aminoalkyloxycarbonyloxymethyl (amino AOCOM) iodides (FIG. 4a). Reaction of 4-quinolinols 1c′ and with the 1d′ with the Boc-protected amino AOCOM iodides, in presence of caesium carbonate, and subsequent deprotection leads to water-soluble HCl salts 6a-d (FIG. 4b). […] The assessment of the aqueous solubility at pH 7.4 was challenging due to the limited stability of the prodrug moiety at neutral pH and was not performed. […] In addition, solid material was rapidly dissolved in 0.5% aqueous HEC solution and visually inspected after 60 seconds for material dissolution.

CCOC(=O)Oc1c(-c2ccccc2C)c(C)nc2cc(OC)c(Cl)cc12 [compound 4, 6-Chloro-7-methoxy-2-methyl-3-(o-tolyl)-4-((ethoxycarbonyl)oxy)quinoline]
in vitro antimalarial activity / EC50 values relative to 1c [1]: comparable to the EC50 values of 1c | solubility [2]: 1.2 µM (≈ 0.463 µg/mL)

O=C1C(O)=C([C@H]2CC[C@H](c3ccc(Cl)cc3)CC2)C(=O)c2ccccc21 [ATO, atovaquone, reference compound]
EC50 [3]: 18.4 µM

CNCCCOC(=O)OCOc1c(-c2ccccc2C)c(C)nc2cc(OC)c(Cl)cc12.Cl [6b, 6-Chloro-7-methoxy-2-methyl-3-(o-tolyl)-4-(((3-(methylammonio)propyloxycarbonyl)oxy)methoxy)quinoline, chloride salt]
Suppression [%] day 6 PI ([4]; 10 mg/kg PO): 52% | Day of death (avg) ([4]; 10 mg/kg PO, untreated 13): 13 | Day of death (avg) ([4]; 50 mg/kg PO): 13 | Suppression [%] day 6 PI ([4]; 50 mg/kg PO): 72% | solubility [5]: > 100 µM

C[C@H]1[C@@H](O)O[C@@H]2O[C@@]3(C)CC[C@H]4[C@H](C)CC[C@@H]1[C@@]24OO3 [DHA, dihydroartemisinin, reference compound]
EC50 [3]: 0.005 µM

From patent publication US20190031613A1, “COMPOUNDS AND METHODS FOR THEIR USE IN THE TREATMENT OF MALARIA” (University of South Florida, priority 2016, published 2019)
